Measured values as given in paper PMC6254837, “Investigating Biological Activity Spectrum for Novel Styrylquinazoline Analogues” (Molecules, 2009).
≈ marks a conversion by molar mass, not a printed value. Where “and” joins values, the source holds several entries; their conditions need not be identical. Equal entries are not always repeated. Where two headings read alike, the source gives them in different places.

What was measured:
M. smegmatis MC2155 = assay: In vitro antimycobacterial evaluation (alamarBlue, 96 well plate); type: cell-based; conditions: Mycolicibacterium smegmatis
M. kansasii CIT11/06 = assay: as above; type: cell-based; conditions: Mycobacterium kansasii, CIT11/06, 120 h, read-out: MIC/IC90 M. kansasii
M. absessus CIT21/06 = assay: as above; type: cell-based; conditions: read-out: MIC/IC90 M. absessus
[1] = Lipophilicity HPLC determination (capacity factor k / calculated log k); type: physicochemical; conditions: RP-HPLC, C18, MeOH/H2O 55:45, non-buffered, isocratic
Description: Some groups have used a C18 chromatographic column with methanol-water mobile phases to obtain log kw, i.e., the retention factor extrapolated to 0% organic modifier, as an alternative to log P [50]. The log kw is obtained by performing several measurements with various ratios of water/organic solvent. Nevertheless determination of log kw has some disadvantages in that it is time consuming due to the various measurements that need to be undertaken before calculation of log kw. The main reason for the measurement is that it is more convenient to perform a systematic study of log k of various heteroaromatic compounds using mobile phases containing around 50% methanol due to various intramolecular interactions between heteroatoms and substituents. Therefore this study was performed using methanol/water (55:45) as the mobile phase. The conditions (non-buffered mobile phase) were chosen with respect to conditions of biological evaluations, which are performed mostly under neutral conditions (pH ~ 7). The lipophilicity data can be strongly influenced by intramolecular interactions under the applied chromatographic conditions which were investigated in the paper. The HPLC separation module Waters Alliance 2695 XE and Waters Photodiode Array Detector 2996 (Waters Corp., Milford, MA, U.S.A.) were used. The chromatographic column Symmetry® C18 5 μm, 4.6 × 250 mm, Part No. WAT054275, (Waters Corp., Milford, MA, U.S.A.) was used. The HPLC separation process was monitored by Millennium32® Chromatography Manager Software, Waters 2004 (Waters Corp.). The mixture of MeOH p.a. (55.0%) and H2O-HPLC – Mili-Q Grade (45.0%) was used as a mobile phase. The total flow of the column was 0.9 mL/min, injection 30 μL, column temperature 30 °C and sample temperature 10 °C. The detection wavelength 210 nm was chosen. The KI methanolic solution was used for the dead time (tD) determination. Retention times (tR) were measured in minutes. The capacity factors k were calculated using the Millennium32® Chromatography Manager Software according to formula k = (tR - tD)/tD, where tR is the retention time of the solute, whereas tD denotes the dead time obtained via an unretained analyte.

[2] = tested on: Mycobacterium avium complex CIT19/06; assay: In vitro antimycobacterial evaluation (alamarBlue, 96 well plate); type: cell-based; conditions: 120 h, read-out: MIC/IC90 M. avium complex
[3] = tested on: photosynthetic electron transport (PET) in spinach chloroplasts; assay: Inhibition of photosynthetic electron transport (PET) in spinach chloroplasts, DCPIP photoreduction; type: biochemical, Spinacia oleracea L.; conditions: phosphate buffer pH 7.2, DMSO up to 4%
Description: Chloroplasts were prepared from spinach (Spinacia oleracea L.) according to Masarovicova and Kralova. The inhibition of photosynthetic electron transport (PET) in spinach chloroplasts was determined spectrophotometrically (Genesys 6, Thermo Scientific, U.S.A.) using an artificial electron acceptor 2,6-dichlorophenol-indophenol (DCIPP) according to Kralova et al. and the rate of photosynthetic electron transport was monitored as a photoreduction of DCPIP. The measurements were carried out in phosphate buffer (0.02 mol/L, pH 7.2) containing sucrose (0.4 mol/L), MgCl2 (0.005 mol/L) and NaCl (0.015 mol/L). The chlorophyll content was 30 mg/L in these experiments and the samples were irradiated (~100 W/m^2) from 10 cm distance with a halogen lamp (250 W) using a 4 cm water filter to prevent warming of the samples (suspension temperature 22 °C). The studied compounds were dissolved in DMSO due to their limited water solubility. […] The inhibitory efficiency of the studied compounds was expressed by IC50 values, i.e. by molar concentration of the compounds causing 50% decrease in the oxygen evolution rate relative to the untreated control.

[4] = tested on: photosynthetic electron transport (PET) in spinach chloroplasts; parameters: method as in earlier work; conditions: standard, read-out: PET inhibition IC50; cited from earlier work
[5] = MC2155, Middlebrook broth, 37 °C overnight, read-out: MIC/IC90 M. smegmatis
[6] = Middlebrook broth, 37 °C five days
[7] = Middlebrook broth, 37 °C overnight

Structure (SMILES)	log k [1]	MIC (M. smegmatis MC2155; [5]) [mg/L]	MIC (M. kansasii CIT11/06; [6]) [mg/L]	IC50 [3] [µM]	MIC (M. absessus CIT21/06; [7]) [mg/L]	MIC [2, 6] [mg/L]	MIC (M. smegmatis MC2155; MC2155, read-out: MIC/IC90 M. smegmatis) [mg/L]	MIC (M. kansasii CIT11/06) [mg/L]	MIC (M. absessus CIT21/06) [mg/L]	MIC [2] [mg/L]	IC50 [4]
Cc1nc2ccccc2c(=O)[nH]1 [Compound 1, 2-Methylquinazolin-4(3H)-one]	0.1170						> 300	> 300	> 300	> 300	
Cc1nc2ccccc2c(=O)n1CCO [Compound 2, 3-(2-Hydroxyethyl)-2-methylquinazolin-4(3H)-one]	0.7047	> 300	> 300	362	> 300	> 300					
O=c1[nH]c(/C=C/c2ccccc2)nc2ccccc12 [Compound 3a, 2-(E)-Styrylquinazolin-4(3H)-one]	1.1148	> 300	> 300		> 300	> 300					
COc1ccccc1/C=C/c1nc2ccccc2c(=O)[nH]1 [Compound 3b, 2-[(E)-2-(2-Methoxyphenyl)vinyl]quinazolin-4(3H)-one]	1.1509	> 100	> 100		> 100	> 100					
COc1cccc(/C=C/c2nc3ccccc3c(=O)[nH]2)c1 [Compound 3c, 2-[(E)-2-(3-Methoxyphenyl)vinyl]quinazolin-4(3H)-one]	1.1837	> 100	> 100		> 100	> 100					
COc1ccc(/C=C/c2nc3ccccc3c(=O)[nH]2)cc1 [Compound 3d, 2-[(E)-2-(4-Methoxyphenyl)vinyl]quinazolin-4(3H)-one]	1.1351	> 100	> 100	693	> 100	> 100					
COc1ccc(/C=C/c2nc3ccccc3c(=O)[nH]2)c(OC)c1 [Compound 3e, 2-[(E)-2-(2,4-Dimethoxyphenyl)vinyl]quinazolin-4(3H)-one]	1.1982	> 100	20 (≈ 64.9 µM)	391	80 (≈ 259 µM)	80 (≈ 259 µM)					
O=c1[nH]c(/C=C/c2cccc(Cl)c2)nc2ccccc12 [Compound 3f, 2-[(E)-2-(3-Chlorophenyl)vinyl]quinazolin-4(3H)-one]	1.5059	> 300	> 300	1030	> 300	> 300					
O=c1[nH]c(/C=C/c2ccccc2Br)nc2ccccc12 [Compound 3g, 2-[(E)-2-(2-Bromophenyl)vinyl]quinazolin-4(3H)-one]	1.4830	> 100	> 100		> 100	> 100					
O=c1[nH]c(/C=C/c2cccc(Br)c2)nc2ccccc12 [Compound 3h, 2-[(E)-2-(3-Bromophenyl)vinyl]quinazolin-4(3H)-one]	1.5904	> 100	> 100	561	> 100	> 100					
O=c1[nH]c(/C=C/c2ccc(Br)cc2)nc2ccccc12 [Compound 3i, 2-[(E)-2-(4-Bromophenyl)vinyl]quinazolin-4(3H)-one]	1.5927	> 100	> 100	665	> 100	> 100					
CN(C)C(=O)Nc1ccc(Cl)c(Cl)c1 [DCMU, 3-(3,4-dichlorophenyl)-1,1-dimethylurea]											~1.9 µM and 1.9 µM

Further lines, with some results ahead:

log k [1]	MIC (M. smegmatis MC2155; [5]) [mg/L]	MIC (M. kansasii CIT11/06; [6]) [mg/L]	IC50 [3] [µM]	MIC (M. absessus CIT21/06; [7]) [mg/L]	MIC [2, 6] [mg/L]	Structure (SMILES)	MIC (M. smegmatis MC2155; MC2155, read-out: MIC/IC90 M. smegmatis) [mg/L]	MIC (M. kansasii CIT11/06) [mg/L]	MIC (M. absessus CIT21/06) [mg/L]	MIC [2] [mg/L]	IC50 [4]
0.8005						O=Cc1ccc(/C=C/c2nc3ccccc3c(=O)[nH]2)cc1 [Compound 3j, 2-[(E)-2-(4-Carbaldehydephenyl)vinyl]quinazolin-4(3H)-one]					
0.5510						O=c1[nH]c(/C=C/c2ccc(O)c(O)c2O)nc2ccccc12 [Compound 3k, 2-[(E)-2-(2,3,4-Trihydroxyphenyl)vinyl]quinazolin-4(3H)-one]					
1.1088	> 100	> 100	285	> 100	> 100	Clc1nc(/C=C/c2ccccc2)nc2ccccc12 [Compound 4a, 4-Chloro-2-(E)-styrylquinazoline]					
1.1497	> 100	60 (≈ 202 µM)		80 (≈ 270 µM)	80 (≈ 270 µM)	COc1ccccc1/C=C/c1nc(Cl)c2ccccc2n1 [Compound 4b, 4-Chloro-2-[(E)-2-(2-methoxyphenyl)vinyl]quinazoline]					
1.1827	> 100	60 (≈ 202 µM)	303	> 100	> 100	COc1cccc(/C=C/c2nc(Cl)c3ccccc3n2)c1 [Compound 4c, 4-Chloro-2-[(E)-2-(3-methoxyphenyl)vinyl]quinazoline]					
1.1337	> 100	> 100	390	> 100	> 100	COc1ccc(/C=C/c2nc(Cl)c3ccccc3n2)cc1 [Compound 4d, 4-Chloro-2-[(E)-2-(4-methoxyphenyl)vinyl]quinazoline]					
1.1953	> 100	> 100	508	> 100	> 100	COc1ccc(/C=C/c2nc(Cl)c3ccccc3n2)c(OC)c1 [Compound 4e, 4-Chloro-2-[(E)-2-(2,4-dimethoxyphenyl)vinyl]quinazoline]					
	39 (≈ 284 µM)	< 10		> 100	< 10	NNC(=O)c1ccncc1 [INH, isoniazid, reference compound]					
